Experimental data published in ChEMBL document CHEMBL1201862, “PubChem BioAssay data set” (2004).
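Tested at 5 concentrations; 48 h exposure; 96-well plates; endpoints linearly interpolated, else capped at highest concentration. GI50 is the concentration that inhibits growth by half.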 Activity calls are given as the source filed them. Rule as the data show it: active = GI50 up to about 1.1 µM and inactive = higher.

What was measured:
Assay in all cases: NCI tumour cell line growth inhibition, 48 h
[1] = test system: A498
[2] = test system: A549
[3] = test system: CCRF-CEM
[4] = test system: COLO 205
[5] = test system: DLD-1
[6] = test system: DMS-114
[7] = test system: DMS-273
[8] = test system: EKVX
[9] = test system: HCC 2998
[10] = test system: HCT-116
[11] = test system: HCT-15
[12] = test system: HL-60
[13] = test system: HOP-62
[14] = test system: HOP-92
[15] = test system: HT-29
[16] = test system: IGROV-1
[17] = test system: K562
[18] = test system: KM-20L2
[19] = test system: KM12
[20] = test system: LOX IMVI
[21] = test system: M19-MEL
[22] = test system: MCF7
[23] = test system: MOLT-4
[24] = test system: Malme-3M
[25] = test system: NCI-H226
[26] = test system: NCI-H23
[27] = test system: NCI-H460
[28] = test system: NCI-H522
[29] = test system: NCI/ADR-RES
[30] = test system: OVCAR-3
[31] = test system: OVCAR-4
[32] = test system: OVCAR-5
[33] = test system: OVCAR-8
[34] = test system: RPMI-8226
[35] = test system: RXF 393
[36] = test system: SF-268
[37] = test system: SF-295
[38] = test system: SF-539
[39] = test system: SK-MEL-28
[40] = test system: SK-MEL-2
[41] = test system: SK-MEL-5
[42] = test system: SK-OV-3
[43] = test system: SN12C
[44] = test system: SNB-19
[45] = test system: SNB-75
[46] = test system: SNB-78
[47] = test system: SW-620
[48] = test system: U-251
[49] = test system: UACC-257
[50] = test system: UACC-62
[51] = test system: UO-31
[52] = test system: XF498
[53] = test system: 786-0
[54] = test system: ACHN
[55] = test system: CAKI-1
[56] = test system: LXFL 529
[57] = test system: M14
[58] = test system: TK-10

COC(=O)c1ccc(/N=N/N(C)COc2ccc([N+](=O)[O-])cc2)cc1
GI50 [1]: > 87.5 µM (inactive) | GI50 [2]: > 100 µM (inactive) | GI50 [3]: 58.2 µM (inactive) | GI50 [4]: > 57.3 µM (inactive) | GI50 [5]: > 100 µM (inactive) | GI50 [6]: > 100 µM (inactive) | GI50 [7]: > 100 µM (inactive) | GI50 [8]: > 100 µM (inactive) | GI50 [9]: > 74.5 µM (inactive) | GI50 [10]: > 100 µM (inactive) | GI50 [11]: > 90.8 µM | GI50 [12]: 21.8 µM (inactive) | GI50 [13]: > 100 µM (inactive) | GI50 [14]: 65.3 µM (inactive) | GI50 [15]: > 94 µM (inactive) | GI50 [16]: > 100 µM (inactive) | GI50 [17]: 50.7 µM (inactive) | GI50 [18]: 54.3 µM (inactive) | GI50 [19]: 81.8 µM (inactive) | GI50 [20]: > 86.9 µM (inactive) | GI50 [21]: > 100 µM (inactive) | GI50 [22]: > 81.5 µM (inactive) | GI50 [23]: > 100 µM (inactive) | GI50 [24]: > 100 µM (inactive) | GI50 [25]: > 100 µM (inactive) | GI50 [26]: > 100 µM (inactive) | GI50 [27]: 15.5 µM (inactive) | GI50 [28]: > 100 µM (inactive) | GI50 [29]: > 100 µM (inactive) | GI50 [30]: > 100 µM (inactive) | GI50 [31]: > 100 µM (inactive) | GI50 [32]: > 95.7 µM (inactive) | GI50 [33]: > 100 µM (inactive) | GI50 [34]: 38.7 µM (inactive) | GI50 [35]: > 85.3 µM (inactive) | GI50 [36]: > 78.2 µM (inactive) | GI50 [37]: > 77.4 µM (inactive) | GI50 [38]: 88.7 µM (inactive) | GI50 [39]: > 100 µM (inactive) | GI50 [40]: > 80.9 µM (inactive) | GI50 [41]: > 96.8 µM (inactive) | GI50 [42]: > 100 µM (inactive) | GI50 [43]: > 100 µM (inactive) | GI50 [44]: > 100 µM (inactive) | GI50 [45]: 54.6 µM (inactive) | GI50 [46]: > 100 µM (inactive) | GI50 [47]: 64.7 µM (inactive) | GI50 [48]: > 100 µM (inactive) | GI50 [49]: > 100 µM (inactive) | GI50 [50]: 33.3 µM (inactive) | GI50 [51]: > 100 µM (inactive) | GI50 [52]: > 100 µM (inactive)

c1ccc(SC2CCSc3ccccc3C2Sc2ccccc2)cc1 (configuration not stated)
GI50 [53]: > 100 µM (inactive) | GI50 [1]: > 100 µM (inactive) | GI50 [2]: > 100 µM (inactive) | GI50 [54]: > 100 µM (inactive) | GI50 [55]: 22.8 µM (inactive) | GI50 [3]: > 100 µM (inactive) | GI50 [4]: > 10 µM (inactive) | GI50 [5]: > 100 µM (inactive) | GI50 [6]: > 10 µM (inactive) | GI50 [7]: > 100 µM (inactive) | GI50 [8]: > 100 µM (inactive) | GI50 [9]: > 100 µM (inactive) | GI50 [10]: 9.75 µM (inactive) | GI50 [11]: > 100 µM | GI50 [12]: 4.73 µM (inactive) | GI50 [13]: > 100 µM (inactive) | GI50 [14]: 18.8 µM (inactive) | GI50 [15]: 69.2 µM (inactive) | GI50 [16]: > 10 µM (inactive) | GI50 [17]: > 100 µM (inactive) | GI50 [18]: > 100 µM (inactive) | GI50 [19]: 56.1 µM (inactive) | GI50 [20]: > 100 µM (inactive) | GI50 [56]: > 100 µM (inactive) | GI50 [57]: > 100 µM (inactive) | GI50 [21]: > 10 µM (inactive) | GI50 [23]: > 100 µM (inactive) | GI50 [25]: > 100 µM (inactive) | GI50 [27]: > 100 µM (inactive) | GI50 [28]: > 100 µM (inactive) | GI50 [30]: 37 µM (inactive) | GI50 [31]: > 100 µM (inactive) | GI50 [33]: > 100 µM (inactive) | GI50 [34]: 96.4 µM (inactive) | GI50 [36]: > 100 µM (inactive) | GI50 [37]: 35.2 µM (inactive) | GI50 [38]: > 100 µM (inactive) | GI50 [41]: 20.9 µM (inactive) | GI50 [42]: > 10 µM (inactive) | GI50 [43]: > 100 µM (inactive) | GI50 [44]: 94.4 µM (inactive) | GI50 [45]: 19.8 µM (inactive) | GI50 [46]: > 100 µM (inactive) | GI50 [47]: > 100 µM (inactive) | GI50 [58]: > 100 µM (inactive) | GI50 [48]: > 100 µM (inactive) | GI50 [49]: 27.9 µM (inactive) | GI50 [50]: > 10 µM (inactive) | GI50 [51]: 6.9 µM (inactive) | GI50 [52]: > 100 µM (inactive)
